Assay results: PubChem BioAssay AID179 (DTP/NCI, 2004)
Calls of active or inactive are those of the source.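 The calls were made as follows: active = compounds giving half or more protection of infected cells from virus-caused growth loss, again on retest; inactive = the rest.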

Tested on: CEM cells HIV-1 protection, formazan growth assay
Assay: NCI AIDS Antiviral Assay
Details: for IC50: measured here: growth of uninfected CEM cells
Method in brief: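 CEM (human) cells, HIV-1 infected vs uninfected, 5-point dosing, formazan growth read-out. Retest threshold 50% protection.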

SMILES	EC50 [µM]	IC50 [µM]	outcome
COC1CC(CC(C)=O)CN(C#N)CCc2c1[nH]c1ccccc21 (centres undefined)	> 132	> 132	–
C=CCN(CC=C)C(=O)COc1cc2c(O)c3c(O)c(C)c4c(c13)C(=O)C(C)(O/C=C\C(OC)C(C)C(OC(C)=O)C(C)C(O)C(C)C(O)C(C)/C=C\C=C(\C)C(=O)N2)O4 (centres undefined)	> 200	17	–
O=C(O)C1=C/C(=C(/c2ccccc2)c2cc(C(=O)O)c(O)c3ccccc23)c2ccccc2C1=O	–	–	inactive
Clc1ccc(CSc2cnnc3ccccc23)cc1	> 61.7	> 61.7	–
C=CCOC(=O)C1C2OC3(C(C(=O)OC)=C2C(=O)OC)c2ccccc2CCC13 (centres undefined)	> 200	1.15	–
O=C(Nc1ccc(Br)cc1)C(=O)C(C(=O)c1ccc(Cl)c(Cl)c1)C1OC(=O)c2ccccc21 (centres undefined)	> 66.1	10	–
O=C1C(c2ccccc2)=C(c2ccccc2)C1(Cl)Cl	> 200	2.45	–
COc1cc(CCC(=O)CC(=O)CCc2ccc(O)c(OC)c2)ccc1O	> 200	34.7	–
COc1cc2c(SCCN(C)C)nc3ccccc3c2c2ccccc12	–	–	inactive
O=C(NCc1ccccc1O)c1ccc(O)cc1O	> 200	110	–
COc1cc2c(cc1OC)C(=O)/C(=C/c1ccc([N+](=O)[O-])cc1)CC2	155	> 200	–
O=c1[nH]cc(N=Nc2ccc(S(=O)(=O)Nc3ccccn3)cc2)cc1O	> 200	87.1	–
CCC1C[N+]23CCc4c([nH]c5ccccc45)C2CC1CC3 (centres undefined)	> 57.5	> 57.5	–
Cc1ccc(S(=O)(=O)N2CCCC2C(=O)NNC(N)=S)cc1 (centres undefined)	> 200	117	–
CC(C(=O)COCc1ccccc1)P1(=O)OC(C)(C)CN1C(C)(C)C (centres undefined)	> 200	132	–
CC(C)(Oc1ccccc1)C(=O)Sc1c(-c2ccccc2)c(=O)n(-c2ccccc2)c(=S)n1-c1ccccc1	> 200	1.35	–
COc1cc2c(cc1OC)C1[C@@H](c3ccccc3)OCN1CC2 (some centres undefined)	–	–	inactive
COc1ccc(-c2c(C#N)c(S)n(NS(=O)(=O)c3ccccc3)c(=O)c2C#N)cc1	> 200	12.6	–
O=C(/C=C/c1ccc(OCC(=O)N2CCN(c3ccccc3)CC2)cc1)c1ccc(Cl)cc1	> 29.5	> 29.5	–
C=CCSSSCC=C	> 120	63.1	–
COc1cc(C(c2cc3c(cc2O)OCO3)N2CCCC2)cc(OC)c1OC (centres undefined)	> 200	7.76	–

SMILES	EC50 [µM]	IC50 [µM]	outcome
CC1=NC(=Cc2ccc(Cl)cc2)C(=O)N1n1c(-c2ccccc2)nc2ccccc2c1=O	> 200	75.9	–
S=c1n(-c2ccc(Cl)cc2)c2nc3ccccc3nc(/c2=N\Nc2ccc(Br)cc2)n1-c1ccccn1	> 32.4	30.9	–
COC(=O)C12C3C4(C(=O)OC)C1C1(C(=O)OC)C2C3(C(=O)OC)C41C(=O)N(C(C)C)C(C)C (centres undefined)	> 200	> 200	–
Cc1cn(C2C(CO)C(CO)C2(F)F)c(=O)[nH]c1=O (centres undefined)	> 200	> 200	–
COC(=O)C12CCC(C(F)(F)C1=O)C2(C)C (centres undefined)	> 200	> 200	–
CC(C)(C)OC(=O)C1CCC/C1=N/Nc1ccc([N+](=O)[O-])cc1[N+](=O)[O-] (centres undefined)	> 200	30.2	–
CCOC(=O)c1no[n+]([O-])c1C(=O)OCC	> 200	5.75	–
CC(=O)O[C@H]1CC[C@@]2(C)C(=CC[C@H]3[C@@H]4CC[C@H]([C@H](C)C(=O)OCC5OC(n6cc(C)c(=O)[nH]c6=O)CC5N=[N+]=[N-])[C@@]4(C)CC[C@@H]32)C1 (some centres undefined)	> 200	4.79	–
CCN(CC)CCCC(C)Nc1cc(C)nc2c1ccc1c2ccc2c(NC(C)CCCN(CC)CC)cc(C)nc21 (centres undefined)	> 66.1	3.98	–
COc1cc2ccccc2oc1=O	> 40.7	> 40.7	–
COc1ccc(C2(C)OC(=O)c3ccccc32)c2ccccc12 (centres undefined)	–	–	inactive
COc1c(O)c2c(=O)cc(OC)c3c4c(OC)cc(=O)c5c(O)c(OC)c6c(c(c1CC(C)(O)C6C(C)=O)c23)c54 (centres undefined)	> 13.2	1.58	–
CC(C(=O)NCNC(=O)c1ccccc1)C(=O)Nc1ccccc1 (centres undefined)	–	–	inactive
O=[N+]([O-])c1cccc(S(=O)(=O)SSS(=O)(=O)c2cccc([N+](=O)[O-])c2)c1	> 40.7	> 40.7	–
O=C1CS(=O)(=O)C2(CCCCC2)C(=O)N1	> 200	> 200	–
C[C@]12CCc3nonc3C1CC[C@@H]1C2CC[C@@]2(C)C1CC[C@@H]2O (some centres undefined)	> 214	174	–
N#CN(CS(=O)(=O)O)C(=N)N	> 200	> 200	–
CC1(C)CNC[C@]2(C)OCCCO[C@@]3(C)CNCC(C)(C)NC(=O)[C@](C)(CNCC(C)(C)NC3=O)OCCCO[C@](C)(CNCC(C)(C)NC2=O)C(=O)N1	> 200	> 200	–
CCCCCCCCCCCC(=O)OCC(C[As](=O)(O)O)OC(=O)CCCCCCCCCCC (centres undefined)	> 200	1.82	–
CN(C)CCNc1c([N+](=O)[O-])sc2ccc(Cl)cc12	> 200	16.6	–
Nc1nccc(NCC2(CO)CC(CCc3ccccc3)C2)n1 (centres undefined)	> 200	10.5	–
